According to ChEMBL document CHEMBL1201862, “PubChem BioAssay data set” (2004):
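Protocol summary: plate cells (96-well), add compound at 5 concentrations, incubate 48 h, interpolate endpoints linearly. The concentration for 50% growth inhibition is given as GI50.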 The source made the active and inactive calls. Rule as the data show it: active = GI50 up to about 1.1 µM and inactive = higher.

What was measured:
Assay in all cases: DTP human tumour cell line panel, 48 h
786-0 = system: 786-0
A498 = system: A498
A549 = system: A549
ACHN = system: ACHN
CAKI-1 = system: CAKI-1
CCRF-CEM = system: CCRF-CEM
COLO 205 = system: COLO 205
DLD-1 = system: DLD-1
DMS-273 = system: DMS-273
EKVX = system: EKVX
HCC 2998 = system: HCC 2998
HCT-116 = system: HCT-116
HCT-15 = system: HCT-15
HL-60 = system: HL-60
HOP-18 = system: HOP-18
HOP-62 = system: HOP-62
HOP-92 = system: HOP-92
HT-29 = system: HT-29
IGROV-1 = system: IGROV-1
K562 = system: K562
KM-20L2 = system: KM-20L2
KM12 = system: KM12
LOX IMVI = system: LOX IMVI
LXFL 529 = system: LXFL 529
M14 = system: M14
M19-MEL = system: M19-MEL
MOLT-4 = system: MOLT-4
Malme-3M = system: Malme-3M
NCI-H226 = system: NCI-H226
NCI-H23 = system: NCI-H23
NCI-H460 = system: NCI-H460
NCI-H522 = system: NCI-H522
OVCAR-3 = system: OVCAR-3
OVCAR-4 = system: OVCAR-4
OVCAR-5 = system: OVCAR-5
OVCAR-8 = system: OVCAR-8
RPMI-8226 = system: RPMI-8226
RXF 393 = system: RXF 393
RXF 631 = system: RXF 631
SF-268 = system: SF-268
SF-295 = system: SF-295
SF-539 = system: SF-539
SK-MEL-28 = system: SK-MEL-28
SK-MEL-2 = system: SK-MEL-2
SK-MEL-5 = system: SK-MEL-5
SK-OV-3 = system: SK-OV-3
SN12C = system: SN12C
SNB-19 = system: SNB-19
SNB-75 = system: SNB-75
SNB-78 = system: SNB-78
SR = system: SR
TK-10 = system: TK-10
U-251 = system: U-251
UACC-257 = system: UACC-257
UACC-62 = system: UACC-62
UO-31 = system: UO-31
XF498 = system: XF498

O=C1C[S+]([O-])c2ccccc2N1 (configuration not stated)
GI50 (786-0): > 100 µM (inactive)
GI50 (A498): > 100 µM (inactive)
GI50 (A549): > 100 µM (inactive)
GI50 (ACHN): > 100 µM (inactive)
GI50 (CAKI-1): > 100 µM (inactive)
GI50 (CCRF-CEM): > 100 µM (inactive)
GI50 (COLO 205): 30.8 µM (inactive)
GI50 (DLD-1): > 100 µM (inactive)
GI50 (DMS-273): 16.8 µM (inactive)
GI50 (EKVX): > 100 µM (inactive)
GI50 (HCC 2998): > 100 µM (inactive)
GI50 (HCT-116): 71.1 µM (inactive)
GI50 (HCT-15): > 100 µM
GI50 (HL-60): > 100 µM (inactive)
GI50 (HOP-18): > 100 µM (inactive)
GI50 (HOP-62): > 100 µM (inactive)
GI50 (HOP-92): > 100 µM (inactive)
GI50 (HT-29): > 100 µM (inactive)
GI50 (IGROV-1): > 100 µM (inactive)
GI50 (K562): > 100 µM (inactive)
GI50 (KM-20L2): > 100 µM (inactive)
GI50 (KM12): > 100 µM (inactive)
GI50 (LOX IMVI): 52.6 µM (inactive)
GI50 (LXFL 529): > 100 µM (inactive)
GI50 (M14): > 100 µM (inactive)
GI50 (M19-MEL): > 100 µM (inactive)
GI50 (MOLT-4): > 100 µM (inactive)
GI50 (Malme-3M): > 100 µM (inactive)
GI50 (NCI-H226): > 100 µM (inactive)
GI50 (NCI-H23): > 100 µM (inactive)
GI50 (NCI-H460): 66.1 µM (inactive)
GI50 (NCI-H522): > 100 µM (inactive)
GI50 (OVCAR-3): > 100 µM (inactive)
GI50 (OVCAR-4): > 100 µM (inactive)
GI50 (OVCAR-5): > 100 µM (inactive)
GI50 (OVCAR-8): > 100 µM (inactive)
GI50 (RPMI-8226): 45.8 µM (inactive)
GI50 (RXF 393): > 100 µM (inactive)
GI50 (RXF 631): > 100 µM (inactive)
GI50 (SF-268): 71.8 µM (inactive)
GI50 (SF-295): > 100 µM (inactive)
GI50 (SF-539): > 100 µM (inactive)
GI50 (SK-MEL-28): 55.1 µM (inactive)
GI50 (SK-MEL-2): > 100 µM (inactive)
GI50 (SK-MEL-5): > 100 µM (inactive)
GI50 (SK-OV-3): > 100 µM (inactive)
GI50 (SN12C): > 100 µM (inactive)
GI50 (SNB-19): > 100 µM (inactive)
GI50 (SNB-75): > 100 µM (inactive)
GI50 (SNB-78): > 100 µM (inactive)
GI50 (SR): 45.5 µM (inactive)
GI50 (TK-10): > 100 µM (inactive)
GI50 (U-251): > 100 µM (inactive)
GI50 (UACC-257): > 100 µM (inactive)
GI50 (UACC-62): > 100 µM (inactive)
GI50 (UO-31): > 100 µM (inactive)
GI50 (XF498): > 100 µM (inactive)
